The source made the active and inactive calls. The rule behind the calls is not given here.
Assays:
[1] = molecular target: LYPLA2; experiment: LYPLA1 and LYPLA2 inhibitor potency, dose response, biochemical, gel-based ABPP (AID 493110); settings: competitive probe labeling
[2] = molecular target: LYPLA1; experiment: as above; settings: competitive probe labeling

IC50 [1] | IC50 [2] | SMILES
30 nM | 17 nM | CC(C)(C)C1CCN(C(=O)n2ncc(C(O)(c3ccccc3)c3ccccc3)n2)CC1
inactive | 795 nM | O=C(N1CCOCC1)n1nnc2ccccc21
57 nM | 35 nM | CC(C)(C)C1CCN(C(=O)n2ncc(C3(O)CCCCC3)n2)CC1
> 10000 nM (inactive) | > 10000 nM (inactive) | CCC1CCCCN1C(=O)n1ncc(C(O)(c2ccccc2)c2ccccc2)n1 (stereo not given)
97 nM | 44 nM | CC(C)(O)c1cnn(C(=O)N2CCC(C(C)(C)C)CC2)n1

— PubChem BioAssay AID493110 (The Scripps Research Institute Molecular Screening Center, 2011)
